Experimental data reported in BigSolDB 2.1.

Nc1cccc(S(=O)(=O)c2cccc(N)c2)c1
solubility (mole fraction)
Conditions	283.15 K	288.15 K	293.15 K	298.15 K	303.15 K	308.15 K	313.15 K	318.15 K	323.15 K	328.15 K
in 1,4-dioxane	0.00411	0.00462	0.00538	0.00652	0.0083	0.0102	0.0123	0.0147	0.0169	0.0194
in DMF	0.0869	0.0916	0.0989	0.11	0.12	0.132	0.146	0.162	0.181	0.2
in acetonitrile	0.00609	0.00709	0.0087	0.0105	0.0127	0.0151	0.0182	0.0225	0.0272	0.033
in cyclohexane	2.7e-06	3.6e-06	5.1e-06	7.7e-06	1.09e-05	1.51e-05	2.03e-05	2.78e-05	3.7e-05	4.86e-05
in ethanol	0.00237	0.00256	0.00297	0.00349	0.00415	0.00492	0.00574	0.00661	0.00738	0.00837
in ethyl acetate	0.0146	0.0162	0.0184	0.021	0.0243	0.0278	0.0321	0.037	0.0424	0.0485
in ethylene glycol	0.00458	0.00515	0.00595	0.00701	0.00843	0.0101	0.012	0.0144	0.0168	0.0194
in isobutanol	0.000586	0.000665	0.000784	0.000952	0.00115	0.00137	0.00166	0.002	0.00234	0.00271
in isopropanol	0.00106	0.00121	0.00148	0.00196	0.00258	0.00326	0.00406	0.005	0.00611	0.00731
in methanol	0.00319	0.00351	0.00397	0.00482	0.00604	0.00744	0.00905	0.0107	0.0125	0.0152
in n-butanol	0.00109	0.00121	0.00142	0.00171	0.00205	0.00246	0.00294	0.00343	0.00396	0.00452
in n-heptanol	0.000699	0.000776	0.000898	0.00106	0.0013	0.0016	0.002	0.00242	0.0029	0.00346
in n-propanol	0.00142	0.00152	0.00177	0.00214	0.00254	0.00301	0.00356	0.00418	0.00496	0.0059
in water	1.52e-05	1.9e-05	2.51e-05	3.32e-05	4.29e-05	5.62e-05	7.79e-05	0.000106	0.000145	0.000198
